Read-outs that look alike come from different tables or passages of the source.
Legend:
[1] = system: rabbit platelets (PAF-induced serotonin release); assay: PAF-induced release of tritiated serotonin from rabbit platelets; type: cell-based, rabbit (New Zealand White); conditions: Oryctolagus cuniculus, Platelet; for inhibition at 30 µM: read-out: Platelet Serotonin Release % Inhibition at 30 uM, 30 uM; for IC50: read-out: Platelet Serotonin Release I50
Procedure: (§1) The cellular responses studied include (1) PAF-induced release of preloaded, radiolabeled serotonin from rabbit platelets, (2) PAF-induced degranulation (release of myeloperoxidase) from purified human nuetrophils and (3) PAF-induced adhesion of human neutrophils to latex beads. Each putative antagonist was tested at 30 μM for its effect on each response. Selected compounds were tested in a concentration-response fashion.
Blood is collected from the central ear artery of New Zealand White rabbits into a 1:7 volume of acid citrate dextrose. The blood is centrifuged at 1100 rpm for 20 minutes. The isolated platelet rich plasma (PRP) is then incubated at 37° C. for 30 minutes with 1 μCi^3 H-serotonin binoxalate per ml PRP. Labeled platelets are pelleted by centrifugation at 2800 rpm for 20 minutes. The platelets are then washed in Tyrodes gel buffer without calcium in the presence of 0.1 mM EGTA and again pelleted at 2800 rpm for 20 minutes. This wash process is repeated. The washed platelet pellet is resuspended in Tyrodes gel buffer without calcium and adjusted to a concentration of 1.25×10^9 platelets/ml, as determined from a standard curve of absorbance at 530 num vs platelet concentration.
Polystyrene reaction tubes containing various dilutions of PAF (for standard curve determination) or a single concentration of PAF with and without the subject antagonist in a 0.45 ml volume of Tyrodes gel buffer with calcium each receive a 0.05 ml aliquot of the paltelet preparation. After a 90 second incubation period at room temperature, the reaction is stopped by the addition of 0.02 ml of 9.25 % formaldehyde. The platelets are then pelleted by centrifugation at 2800 rpm for 15 minutes at 4° C.
Aliquots (0.1 ml) of the supernatants are added to 3 ml liquid scintillation fluid in polypropylene vials. The samples are then counted for radioactivity in a liquid scintillation counter. The platelets in one set of reaction tubes containing only buffer and labeled platelets are lysed using 0.01 ml 10% Triton TX, and the total reactivity is determined by liquid scintillation counting. The determined dpm represent the total radioactivity in the labelled platelets. The results for each determination are reported as the percentage release of the total radioactivity in the sample. The extent of PAF antagonist activity is expressed as the percent inhibition of ^3 H-serotonin release compared to that amount released by PAF alone.

[2] = system: human neutrophils (PAF-induced degranulation); assay: PAF-induced degranulation (myeloperoxidase release) of human neutrophils; type: cell-based; conditions: Neutrophil
Procedure: as §1
Neutrophils are isolated from human venous blood via a two-step sedimentation procedure, and contaminating erythrocytes are selectively lysed. The neutrophils were preincubated in 0.25% Hanks buffer containing bovine serum albumin (BSA) with 5 ug Cytochalasin B/ ml cells for 5 minutes at 37° C. Neutrophils (4×10^6) are added to stimuli (PAF or buffer control) in the presence and absence of antagonist in Krebs-Ringer buffer to a final volume of 1.0 ml, and incubated at 37° C. for appropriate periods of time. At the end of the reaction period the neutrophils are pelleted by centrifugation at 3000 rpm for 5 minutes at 4° C.
Aliquots (0.2 ml) of the supernatants are added to polysyrene tubes to which are added the following: 0.6 ml)>25% Hanks BSA, 0.5 ml MPO buffer (0.2 M NaPO4, pH 6.2) and to start the color reaction 0.2 ml of a 1:1 v/v 0.05% H2 O2 :1.25 mg/ml dimethoxybenzidine (DMB). The reaction is allowed to run at room temperature for 15 minutes and is stopped by the addition of 0.05 ml 2% sodium azide. The developed color is quantitated in a spectrophotometer at 460 nm. The amount of myeloperoxidase (MPO) released by PAF stimulation can thus be determined. In order to determine the total amount of MPO in the cells an unstimulated control tube of neutrophils is lysed using 0.01 ml 10% Triton TX and the total MPO is determined via the color reaction and spectrophotometer reading. The activity of a given concentration of PAF is expressed as the percentage of the total MPO released. The activity of antagonists at a given concentration is expressed as a percentage of inhibition of PAF-induced MPO released at a single concentration of PAF.

[3] = system: human neutrophils (PAF-induced bead adhesion); assay: PAF-induced adhesion of human neutrophils to latex beads; type: cell-based; conditions: Neutrophil, albumin-coated latex beads
Procedure: as §1
Latex bead suspension (0.6 ml; 10% aqueous suspension; particle diameter=1u) is pipeted into a 1.5 ml eppendorf centrifuge tube. The beads are pelleted by centrifugation, the supernatant is discarded and the beads are washed 2 times with 1 ml 0.9% saline. To the pelleted beads is added 0.5 ml 20 mg/ml human serum albunim (HSA) in Krebs-Ringer buffer.
Allow bed-albumin mixture to sit at room temperature for 10 minutes, centrifuge for 1 minute and remove the supernatant, and wash albumin-coated beads 3 times with saline. Resuspend the beads in 1 ml of Krebs-Ringer.
Human neutrophils are prepared as described for the neutrophil degranulation assay and 10^7 cells are added to 0.3 ml of Krebs-Ringerin the presence and absence of PAF and putative antagonist and are incubated at 37° for an appropriate period of time.
The albumin-coated beads are then added in 0.05 ml to give a final bead concentration of 1% v/v, resulting in a bead to neutrophil ratio of 100:1. The tubes containing cells and beads are then placed in an agitating water bath at 37° C. and 120 oscillation per minute for 10 minutes. The reaction is stopped by adding an equal volume of 2.5% glutaraldehyde in saline. The reaction tubes are allowed to stand at room temperature for 30 minutes. The cells are then washed 3 times (with centrifugation at 1000 rpm for 5 minutes) with saline to remove the unadhered latex beads and resuspended in 0.3 ml saline.
Wet mounts are prepared and adherence is examined by light microscopy at 400x. […] Activity of the antagonists is expressed as the percent inhibition of PAF-induced adherence.

[4] = Stability of free base solution on exposure to air (tlc); type: physicochemical; conditions: 1 h exposure to air
Procedure: 1-(3,4-Dimethoxybenzyl)-6-methyl-3,4-dihydroisoquinoline (D2). Amide D1 (24.7 g, 0.079 mol) and 850 ml of tetrachloroethane was distilled to remove 50 ml of solvent. This solution was added to a solution of 90 g (0.63 mol) of P2 O5 in HMDSO which was heated at 115°. The reaction mixture was heated at 155°-170° for 5 h at which time the reaction appeared complete by tlc. To the cooled reaction mixture was added over 1 h a solution of 100 g of NaOH in 1 l of water under nitrogen with stirring. The organic layer was separated and filtered through a pad of MgSO4. One-half of the tetrachloroethane solution was partially evaporated and […] hydrochloric acid (25 ml) wa added. The resulting mixture was evaporated to dryness. The residue was twice treated with EtOH (100 ml) and evaporated to dryness. The residue was washed with two 100 ml portions of ether and taken up to 100 ml of acetone and evaporated to give a foam. The foam was washed with ethyl acetate (60 ml) and dissolved in 75 ml of i-PrOH, treated with charcoal, filtered and boiled down to 50 ml. The solution deposited 3.4 g of 1-(3,4-dimethoxybenzyl)-6-methyl-3, 4-dihydroisoquinoline hydrochloride after storing overnight at 4°. Dilution of the mother liquor with ethyl acetate and ether gave another 2.9 g to raise the yield to 6.3 g (48% based on one-half of crude product purified).

[5] = system: PAF-induced edema; assay: PAF-induced edema formation in rabbit skin; type: in vivo; conditions: for % Inhibition of PAF-induced edema: local intradermal, with PAF+PGE2, 30 minutes
Procedure: PAF (10^-9 moles/site) was mixed with […] (a vasodilator, 3×10^-10 moles/site) and injected intradermally in 0.1 ml volumes with six replicates per sample. After 30 minutes a cardiac blood sample was taken and the plasma perpared. The animal was then killed, the dorsal skin removed and injection sites were punched out. Skin samples were counted in a counter together with plasma samples and the amount of plasma leakage in skin sites expressed in terms of 1 μl plasma by comparing the skin radioactivity with that in 1 μl plasma.

Row | SMILES | inhibition at 30 µM ([1]; PAF-induced, rabbit platelets) | inhibition at 30 µM [2] | inhibition at 30 µM [3] | IC50 ([1]; PAF-induced, rabbit platelets) | other results
1 | COc1ccc(CCC2=NCCc3cc(C)ccc32)cc1OC [Compound E2] | 92% | 70% | 2% | – | –
2 | COc1ccc(C2=NCCc3cc(OCc4ccccc4)ccc32)cc1OC [Compound I2, 1-(3,4-Dimethoxyphenyl)-6-benzyloxy-3,4-dihydroisoquinoline] | 100% | 72% | 10% | 12.5 µM | –
3 | COc1ccc(C2=NCCc3cc(C)ccc32)cc1OC [Compound C2, 1-(3,4-Dimethoxyphenyl)-6-methyl-3,4-dihydroisoquinoline] | – | 16% | 10% | – | inhibition at 30 µM ([1]; lot 2): 0%; inhibition at 30 µM ([1]; lots 1 & 3): 38%
4 | COc1ccc(C2=NCCc3cc(OCCN(C)C)ccc32)cc1OC [Compound 12b] | 0% | 10% | 2% | – | –
5 | COc1ccc(Cc2nccc3cc(C)ccc23)cc1OC [Compound D3, 1-(3,4-Dimethoxybenzyl)-6-methylisoquinoline] | 100% | 57% | 100% | 25 µM | –
6 | COc1cc(-c2nccc3cc(C)ccc23)cc(OC)c1OC [Compound F3, 1-(3,4,5-Trimethoxyphenyl)-6-methylisoquinoline] | 89% | 60% | 87% | – | –
7 | COc1ccc(-c2nccc3ccccc23)cc1OC [Compound A3, 1-(3,4-dimethoxyphenyl) isoquinoline] | 80% | 38% | 2% | – | –
8 | COc1ccc(CC2=NCCc3cc(C)ccc32)cc1OC [Compound D2, 1-(3,4-Dimethoxybenzyl)-6-methyl-3,4-dihydroisoquinoline] | 70% | 17% | 23% | 5.6 µM | Decomposition of free base in solution by tlc [4]: extensive decomposition
9 | COc1ccc(Cc2nccc3cc(OCc4ccccn4)ccc23)cc1OC [Compound J3a, 1-(3,4-Dimethoxybenzyl)-6-(2-pyridylmethyloxy) isoquinoline] | 88% | 70% | 12% | 0.8 µM | % Inhibition of PAF-induced edema ([5]; 10^-7 moles/site): 62%; % Inhibition of PAF-induced edema ([5]; 10^-8 moles/site): 30%; % Inhibition of PAF-induced edema ([5]; 10^-9 moles/site): -7%; % Inhibition of PAF-induced edema ([5]; 10^-10 moles/site): 2%
10 | COc1cc(C2=NCCc3cc(C)ccc32)cc(OC)c1OC [Compound F2, 1-(3,4,5-Trimethoxyphenyl)-6-methyl-3,4-dihydroisoquinoline] | 48% | 27% | 26% | – | –
11 | COc1ccc(C2=NCCc3cc(O)ccc32)cc1OC [Compound 12a, 1-(3,4-Dimethoxyphenyl)-6-hydroxy-3,4-dihydroisoquinoline] | 12% | 40% | 90% | – | –
12 | COc1ccc(C2=NCCc3cc(C)ccc32)cc1 [Compound H2, 1-(4-Methoxyphenyl)-6-methyl-3,4-dihydroisoquinoline] | 100% | 25% | 3% | 18 µM | –
13 | COc1ccc(-c2nccc3cc(C)ccc23)cc1OC [Compound C3, 1-(3,4-dimethoxyphenyl)-6-methylisoquinoline] | 100% | 78% | 30% | – | IC50 ([2]; Homo sapiens, read-out: PAF-Induced Neutrophil Degranulation I50): > 30 µM
14 | COc1ccc(C2=NCCc3ccccc32)cc1OC [Compound A2, 1-(3,4-Dimethoxyphenyl)-3,4-dihydroisoquinoline] | 48% | 7% | 2% | – | –
15 | COc1cccc(C2=NCCc3cc(C)ccc32)c1 [Compound G2, 1-(3-Methoxyphenyl)-6-methyl-3,4-dihydroisoquinoline] | 100% | 14% | 42% | 20 µM | –
16 | CCCCC[C@H](O)/C=C/[C@H]1[C@H](O)CC(=O)[C@@H]1C/C=C\CCCC(=O)O [PGE2, reference compound] | – | – | – | – | Edema formation in rabbit skin (response to agent alone) ([5]; intradermal, alone, compared with saline): not much greater than seen with saline
17 | COc1ccc(CCc2nccc3cc(C)ccc23)cc1OC [Compound E3, 1-[2-(3,4-Dimethoxyphenyl)ethyl]-6-methylisoquinoline] | 90% | 77% | 9% | – | –

Source: patent USRE34630E, “Substituted isoquinolines and methods of using same” (Euroceltique, S.A., priority 1992, dated 1994)
